Measured values as given in article PMC3095642, “New Synthetic Thrombin Inhibitors: Molecular Design and Experimental Verification” (PLoS ONE, 2011).
Like-named read-outs stand apart in the source and are kept apart here. Marks after values point to notes of the source that are not given here.

What was measured:
Human thrombin = target: T1, Human thrombin (Homo sapiens, UniProt P00734); assay: Thrombin induced hydrolysis of specific substrates in buffer system; format: biochemical
T1 construct: Human thrombin (8.3 mg/ml) was obtained from Hematologic Technologies Inc; purchased Hematologic Technologies Inc. (Essex Junction, VT, USA)
Procedure: The kinetics of thrombin inhibition was determined from the hydrolysis reaction of a specific substrate by thrombin in the presence of the tested substances. The chromogenic substrate (Tosyl-Gly-Pro-Arg-p-nitroanilide) or fast fluorogenic substrate (BOC-Ala-Pro-Arg-AMC) was used.
Plate wells were filled with 20 mM HEPES (pH 8.0) containing 140 mM NaCl and 0.1% polyethylene glycol (molecular weight 6000 Da). Thereafter, substrate was sequentially added to each well (final concentration, 100 µM), followed by the substance being tested (to a final concentration that was varied) and thrombin (final concentration, 0.2 nM). The hydrolysis rate was monitored spectrophotometrically at 405 nm (absorption maximum of the reaction product – p-nitroaniline), or fluorometrically (λex = 380 nm; λem = 440 nm for fluorescent reaction product 7-amino-4-methylcoumarine).
The initial rate was determined as the slope of the linear portion of the kinetic curve over the first 10 to 20 min of measurement. The inhibitory effect was expressed as the percentage reduction of the initial hydrolysis rate. The reaction rate in the absence of inhibitor was taken as 100%. Each result is the mean of two parallel determinations.
The inhibitor concentration was determined decreasing hydrolysis rate to 50% (IC50). Values of the inhibition constants were calculated on the assumption about competitive mechanism of inhibition using equation (1) [drawing 1] (1) where: KI - the constant of inhibition,
• S - the concentration of a substrate (100 µM), • KM - the Michaelis constant of a specific substrate for thrombin (9.44 µM, average from ref. [23], [24] and our measurements for chromogenic and 13 µM for the fluorogenic substrate, respectively).

[1] = test system: thrombin generation in normal donor plasma (PPP); assay: Thrombin generation test in plasma (endogenous thrombin potential, ETP); format: biochemical, human
Procedure: The kinetics of thrombin generation in plasma was monitored using a modification of the standard method using a slow fluorogenic substrate BOC-Ile-Gly-Arg-AMC [8]. Normal donor plasma (PPP) was placed in the wells (90 µl/well) of a 96-well flat-bottom microtiter plate, after which 10 µl of the substance solution to be tested was added in different concentrations, along with 10 µl of the slow fluorogenic substrate (initial concentration 5 mM). In the control wells (without inhibitor), 10 µl of the solvent used was added (20 mM HEPES, pH 7.5 and 140 mM NaCl; or pure ethanol, or dimethylsulfoxide (DMSO) for different substances). The samples were incubated at 37°C for 3–5 min before being activated with thromboplastin, which was a 1∶250 dilution of a standard prothrombin time reagent (Renam, Moscow, Russia) in the same buffer supplemented with 90 mM CaCl2. The final concentration of tissue factor during activation was about 4 pM. Thromboplastin (25 µl) was added to all wells simultaneously using a multichannel micropipette. The moment of thromboplastin addition was taken as time zero. The kinetics of accumulation of the fluorescent reaction product 7-amino-4-methylcoumarine (AMC) was recorded for 65 min with a fluorometric Fluoroscan II reader (LabSystem, Finland) (λex. = 380 nm; λem. = 440 nm). The results were averaged over two parallel samples. The error of parallel measurements was within 2–5%. At every moment, the rate of product accumulation is proportional to the instant thrombin concentration present in plasma. Therefore, the curve for the temporal evolution of thrombin in the system may be obtained using differentiation of the curve for AMC accumulation. For each sample, arbitrary fluorescence units were converted to absolute AMC concentrations using the calibration signal obtained by adding a known AMC concentration into each particular plasma sample in the presence of the fluorogenic substrate and the tested substance. The corrections were done taking into account the substrate consumption and the nonlinearity of the AMC calibration curve. The area under the thrombin time curve over a period of 60 min (endogenous thrombin potential, ETP) was determined.

C57Bl/6 mice [2] = assay: Acute toxicity in mice; format: in vivo, mouse; settings: females, mortality after 2 or less hours
Procedure: Preliminary safety examination for the best synthesized inhibitors was carried out by measuring their acute toxicity in C57Bl/6 mice (females, 26–28 g, intraperitoneal administration). The total number of animals used in each experiment was 20–35. The dose of inhibitor that caused mortality in half of the animals after 2 or less hours (LD50) was determined. […] For administration of different doses of an inhibitor, different volumes of the initial stock inhibitor solution were supplemented with corresponding volumes of vehicle (20% cremophore EL in normal saline) to obtain a constant administered volume of 1.8 ml in each case. To obtain the highest doses of inhibitors, the animals were injected with 2.3 ml of stock inhibitor solutions instead.

[3] = test system: thrombin generation in normal donor plasma (PPP); settings: ref [36], [37], read-out: IC50 for ETP reduction; cited from earlier work
C57Bl/6 mice [4] = settings: ref [38]; cited from earlier work
[5] = test system: hemodilution-induced hypercoagulation in rats; assay: Model of hemodilution-induced hypercoagulation in rats; format: in vivo, rat; settings: 23.0±4.5% blood loss, infusion of saline supplemented with 2 µM inhibitor, 10, 30 or 60 min after infusion
Procedure: In particular, 200 µl of PPP samples were placed in the wells of a 96-well plate. Then, 2 µl of a solution of fluorogenic substrate BOC-Ile-Gly-Arg-AMC in DMSO (initial concentration 41 mM) was added, and coagulation was triggered by 3 µl of activator, which was a 1∶20 dilution of a standard prothrombin time reagent (Renam, Moscow, Russia) in the buffer (20 mM HEPES, 140 mM NaCl, pH 7.5) supplemented with 1.4 M CaCl2. Measurement of fluorescence (120 min) and processing of the results obtained were carried out by the methods described earlier.
The anticoagulation activity of one of the new thrombin inhibitors (4i) was studied in vivo in a newly developed model of hemodilution-induced hypercoagulation in rats. Experiments were carried out on male outbred white rats weighing 250–450 g and housed in a vivarium. A polyethylene cannula was implanted into the right femoral artery of the rats, which were anesthetized with thiopental (40 mg/kg of body weight, i.p.), to a depth of 4–5 cm. […] Coagulation was analyzed in samples of blood collected before hemodilution for all animals. […] The volume of blood loss was calculated on the assumption that the total blood volume of the rat is equal to 6.5% of the body weight.

[6] = chromogenic substrate (SCHR), read-out: Inhibition of thrombin activity (in buffer system) IC50
[7] = chromogenic substrate Tosyl-Gly-Pro-Arg-p-nitroanilide, calculated assuming competitive inhibition, KM 9.44 µM, read-out: KI for thrombin inhibition in buffer system
[8] = ETP reduction by 50% in plasma in vitro, read-out: IC50 for reduction of thrombin generation in plasma
[9] = chromogenic substrate (SCHR), calculated assuming competitive type of inhibition, read-out: Inhibition of thrombin activity (in buffer system) Ki
[10] = Table S2, read-out: IC50 for ETP reduction in plasma
[11] = fast fluorogenic substrate (SFLUO), 100 µM, thrombin 0.2 nM, read-out: Inhibition of specific thrombin substrate hydrolysis in buffer system IC50
[12] = fast fluorogenic substrate (SFLUO), calculated from IC50 assuming a competitive mechanism of inhibition, read-out: Inhibition of specific thrombin substrate hydrolysis in buffer system KI

Compound: Cc1cc(OCCSC(=N)N)cc(OS(=O)(=O)c2ccccc2Cl)c1.I [8c]
- IC50 (Human thrombin; [6]): 3.8 nM
- Ki (Human thrombin; [7]): 0.33 nM
- IC50 [1, 8]: 160 nM
- LD50 (mouse), intraperitoneal administration (C57Bl/6 mice [2]): 793.5 ± 118.5 mg/kg

Compound: Cc1cc(OCCCSC(=N)N)cc(OS(=O)(=O)c2ccccc2Cl)c1 [8e]
- Ki (Human thrombin; [9]): 1 nM
- IC50 (Human thrombin; [6]): 11.6 nM
- IC50 [1, 10]: 4100 nM

Compound: CC1CNc2c(cccc2S(=O)(=O)N[C@@H](CCCNC(=N)N)C(=O)N2CC[C@@H](C)C[C@@H]2C(=O)O)C1 (stereo partly drawn) [Argatroban]
- IC50 [1, 8]: 650 nM
- IC50 [3]: 600 to 970 nM
- LD50 (mouse), intraperitoneal administration (C57Bl/6 mice [4]): 475 mg/kg

Compound: Cc1cc(OCCSC(=N)N)cc(OS(=O)(=O)c2ccccc2S(C)(=O)=O)c1.I [8b]
- IC50 (Human thrombin; [6]): 17 nM
- Ki (Human thrombin; [7]): 1.5 nM
- IC50 [1, 8]: 800 nM
- LD50 (mouse), intraperitoneal administration (C57Bl/6 mice [2]): >458.0 ^5) mg/kg

Compound: Cc1cc(OCC[n+]2ccc(N)cc2)cc(OS(=O)(=O)c2ccccc2)c1.[I-] [4i]
- IC50 (Human thrombin; [6]): 9 nM
- Ki (Human thrombin; [7]): 0.78 nM
- IC50 [1, 8]: 250 nM
- LD50 (mouse), intraperitoneal administration (C57Bl/6 mice [2]): 418.9 ± 33.0 mg/kg
- Effect on development of hypercoagulation (change of ETP relative to initial level) [5]: canceled the hypercoagulation effect of hemodilution

Compound: CNC(=N)SCCCOc1cc(C)cc(OS(=O)(=O)c2ccccc2Cl)c1 [8g]
- Ki (Human thrombin; [9]): 474 nM
- IC50 (Human thrombin; [6]): 5500 nM
- IC50 [1, 10]: 25200 nM

Compound: N=C(N)c1ccc(-c2ccc(-c3ccc(C(=N)N)cc3)o2)cc1 [NSC 305831]
- IC50 (Human thrombin; chromogenic substrate (SCHR), 100 µM, thrombin 0.2 nM, read-out: Inhibition of specific thrombin substrate hydrolysis in buffer system IC50): 72000 nM
- Ki (Human thrombin; chromogenic substrate (SCHR), calculated from IC50 assuming a competitive mechanism of inhibition, read-out: Inhibition of specific thrombin substrate hydrolysis in buffer system KI): 6200 nM

Compound: CNC(=N)SCCOc1cc(C)cc(OS(=O)(=O)c2ccccc2Cl)c1.I [8h]
- IC50 (Human thrombin; [6]): 65.8 nM
- Ki (Human thrombin; [7]): 5.7 nM
- IC50 [1, 8]: 530 nM
- LD50 (mouse), intraperitoneal administration (C57Bl/6 mice [2]): >287.0 ^5) mg/kg

Compound: Cc1cc(OCC[n+]2ccc(N)cc2)cc(OS(=O)(=O)c2ccccc2S(C)(=O)=O)c1.[I-] [4g]
- IC50 (Human thrombin; [6]): 8.7 nM
- Ki (Human thrombin; [7]): 0.75 nM
- IC50 [1, 8]: 160 nM
- LD50 (mouse), intraperitoneal administration (C57Bl/6 mice [2]): 166.7 ± 20.0 mg/kg

Compound: Cc1cc(OCCCSC(=N)N)cc(OS(=O)(=O)c2ccccc2F)c1.I [8f]
- IC50 (Human thrombin; [6]): 23.5 nM
- Ki (Human thrombin; [7]): 2.03 nM
- IC50 [1, 8]: 1240 nM
- LD50 (mouse), intraperitoneal administration (C57Bl/6 mice [2]): >653.1 ^5) mg/kg

Compound: CC(C)(C)CC(C)(C)c1ccc(OCCSC(=N)N)cc1 [NSC 4482]
- IC50 (Human thrombin; [11]): 3450 nM
- Ki (Human thrombin; [12]): 400 nM

Compound: Cc1cc(OCC[n+]2ccc(N)cc2)cc(OS(=O)(=O)c2ccccc2Cl)c1.[I-] [4f]
- IC50 (Human thrombin; [6]): 2.44 nM
- Ki (Human thrombin; [7]): 0.21 nM
- IC50 [1, 8]: 260 nM
- LD50 (mouse), intraperitoneal administration (C57Bl/6 mice [2]): 679.0 ± 152.7 mg/kg

Compound: CC12CCC3C(CC=C4CC(SC(=N)N)CCC43C)C1CCC2=O (stereo not drawn) [NSC 41339]
- IC50 (Human thrombin; [11]): 240000 nM
- Ki (Human thrombin; [12]): 27600 nM

Compound: Cc1cc(OCCSC(=N)N)cc(OS(=O)(=O)c2ccccc2)c1.I [8d]
- IC50 (Human thrombin; [6]): 11 nM
- Ki (Human thrombin; [7]): 0.95 nM
- IC50 [1, 8]: 900 nM
- LD50 (mouse), intraperitoneal administration (C57Bl/6 mice [2]): >1111.1 mg/kg

Compound: Cc1cc(OCC[n+]2ccc(N)cc2)cc(OS(=O)(=O)c2ccccc2F)c1.[I-] [4e]
- IC50 (Human thrombin; [6]): 3.5 nM
- Ki (Human thrombin; [7]): 0.3 nM
- IC50 [1, 8]: 100 nM
- LD50 (mouse), intraperitoneal administration (C57Bl/6 mice [2]): 523.1 ± 92.3 mg/kg

Compound: CC(=O)C1CCC2C3CC=C4CC(SC(=N)N)CCC4(C)C3CCC12C (stereo not drawn) [NSC 123477]
- IC50 (Human thrombin; [11]): 75000 nM
- Ki (Human thrombin; [12]): 8600 nM

Compound: Cc1ccc2nc(-c3ccc(CSC(=N)N)cc3)oc(=O)c2c1 [NSC 328131]
- IC50 (Human thrombin; [11]): ~35000 nM
- Ki (Human thrombin; [12]): 4000 nM

Compound: Cc1cc(OCCCSC(=N)N)cc(OS(=O)(=O)c2ccccc2)c1 [8a]
- Ki (Human thrombin; [9]): 8.4 nM
- IC50 (Human thrombin; [6]): 97 nM
- IC50 [1, 10]: 8000 nM

Compound: Cc1cc(OCCC[n+]2ccc(N)cc2)cc(OS(=O)(=O)c2ccccc2Cl)c1 [4d]
- Ki (Human thrombin; [9]): 293 nM
- IC50 (Human thrombin; [6]): 3400 nM
- IC50 [1, 10]: 40000 nM

Compound: Cc1cc(OCC[n+]2ccc(N)cc2)cc(OS(=O)(=O)c2ccc(Cl)cc2)c1.[I-] [4h]
- IC50 (Human thrombin; [6]): 9 nM
- Ki (Human thrombin; [7]): 0.78 nM
- IC50 [1, 8]: 150 nM
- LD50 (mouse), intraperitoneal administration (C57Bl/6 mice [2]): 372.7 ± 84.6 mg/kg
